Experimental data: patent US8822439B2, “Glucocorticoid receptor agonists” (Pfizer Inc., priority 2007, dated 2014)

How the values were obtained:
[1] = tested on: TNF-α release from LPS stimulated isolated human peripheral mononuclear cells (PBMC); assay: Inhibition of TNF-α release from LPS stimulated isolated human PBMC; assay type: cell-based; settings: 1 h preincubation, 18 hours after LPS, ELISA
Description: (§1) The anti-inflammatory activity of the compounds against human leukocytes in vitro was also evaluated by determining inhibition of tumour necrosis factor-α (TNF-α) release from lipopolysaccharide (LPS) stimulated human whole blood (WB) and isolated human peripheral mononuclear cells (PBMC).
(§2) Peripheral venous blood from healthy, non-medicated donors was collected using ethylenediaminetetraacetic acid (EDTA) as the anti-coagulant. For PBMC preparation, samples of blood were diluted 1:1 with sterile phosphate buffered saline and then separated using ACCUSPIN™ System-Histopaque®-1077 tubes (Sigma-Aldrich, St Louis, Mo.), centrifuged at 400 g for 35 minutes. Buffy coat cells were removed into PBS, centrifuged at 200 g for 10 minutes and re-suspended in PBMC assay buffer (Hanks Balanced Salt Solution, 0.28% [w/v] 4-[2-hydroxyethyl]-1-piperazineethanesulfonic acid [HEPES], 0.01% [w/v] low-endotoxin bovine serum albumin [BSA]. A differential white cell count was performed and PBMC's diluted to 1×10^6 lymphocytes per ml in PBMC assay buffer.
(§3) Test compounds were dissolved in DMSO and diluted in PBMC assay buffer (final DMSO concentration 1%) to cover an appropriate concentration range, e.g 0.001 nM to 10000 nM. Samples of test compound solution or vehicle (20 μl) were added into 96-well tissue culture treated plates (Corning) and PBMC (160 μl) or WB (160 μl) added to each well. The assay mixtures were incubated at 37° C. for 1 h in a humidified incubator containing an atmosphere of air supplemented with 5% CO2 before adding LPS (20 μl of 100 ng/ml for PBMC or 1 μg/ml for WB). Plates were returned to the incubator for a further 18 hours, and then centrifuged before recovery of samples of supernatant. TNF-α in the samples was determined using an enzyme-linked immunosorbent assay (ELISA) (Invitrogen kit no CHC-1754; Invitrogen Carlsbad, Calif.) and following the manufacturers instructions. Dose response curves were constructed from which IC50 values were calculated.

[2] = tested on: LPS-induced lung neutrophils; assay: Inhibition of LPS-induced lung neutrophilia in rats after intratracheal dosing; assay type: in vivo; settings: male CD Sprague-Dawley rats; single intratracheal dose 4 hours before nebulised LPS; BAL 4 hours after LPS
Description: The pharmacological activity may be assessed in in vivo models of lung inflammation such as the one described below. The primary objective of this procedure was to determine the anti-inflammatory activity of the compounds of formula (I), when administered directly into the lungs via the trachea.
Test compounds were dissolved, or prepared as fine suspensions, in phosphate buffered saline containing 0.5% (w/v) Tween-80 to provide a range of dose levels. Male CD Sprague-Dawley rats (300-450 g) were randomised to study groups of n=6 and then briefly anaesthetised in an anaesthetic chamber with 5% Isoflurane in 3 l/min O2. One of the test compound formulations or dose vehicle (100 μl) was injected directly into the trachea of each anaesthetised rat using a Hamilton syringe. The animals were then allowed to recover from the anaesthetic. Dependent on the study design, animals received either a single dose of compound or were treated once daily on 4 successive days. Four hours after the dosing (or 4 hours after the final dose in repeat dose studies) the rats were placed into a chamber (300×300×450 mm), connected to an ultrasonic nebuliser and a small animal rodent ventilator set to the maximum tidal volume and rate (5 ml, 160 strokes/min). 10 ml of 1 mg/ml LPS (Sigma-Aldrich, L2630) dissolved in saline, pre-warmed to 37° C., was nebulised into the chamber. After 15 minutes the ventilator and nebuliser were turned off and the animals remained in the chamber to breathe the mist for a further 15 minutes before being returned to the home cage.
Four hours after the end of the LPS treatment the animals were terminally anaesthetised with 1 ml/kg Pentoject IP. The trachea was cannulated and the lungs lavaged with 4×2.5 ml PBS containing 2.6 mM EDTA and the lavage fluid collected. 1 ml bronchioalveolar lavage (BAL) was added to 125 μl of 40% bovine serum albumen (BSA) and the cellular count determined using an Advia 120 haematology system (Siemens). In repeat dose studies, bodyweights and weights of adrenal glands and thymus were also determined as these are known to decrease in response to glucocorticoid agonist exposure and have been used to assess the systemic effects of glucocorticoid agonists. In some repeat dose experiments, a terminal blood sample was collected from each rat, serum and plasma prepared, and concentrations of corticosterone in serum and ACTH in plasma were determined as additional markers of systemic glucocorticoid agonist effect. In some studies a known glucocorticoid agonist, fluticasone propionate, was administered to separate groups of rats as a positive control.
Separate dose response curves were constructed, for inhibition of LPS-induced lung neutrophils, and each marker of glucocorticoid agonist systemic effect. Half maximal effect doses (ED50) values were estimated from the fitted curves. The ED50 values for effect on systemic markers of glucocorticoid agonist activity were also divided by the ED50 for inhibition of lung neutrophilia in order to determine values for therapeutic index (TI).

[3] = tested on: TNF-α release from LPS stimulated human whole blood (WB); assay: Inhibition of TNF-α release from LPS stimulated human whole blood; assay type: cell-based; settings: 1 h preincubation, 18 hours after LPS, ELISA
Description: as §1, §2, §3

Compound: C[C@]12C=CC(=O)C=C1[C@@H](F)C[C@H]1[C@@H]3C[C@H]4O[C@@H](c5ccc(Cc6ccccc6)cc5)O[C@@]4(C(=O)CO)[C@@]3(C)C[C@H](O)[C@@]12F [Example 1, (4aS,4bR,5S,6aS,6bS,8R,9aR,10aS,10bS,12S)-8-(4-Benzylphenyl)-4b,12-difluoro-6b-glycoloyl-5-hydroxy-4a,6a-dimethyl-4a,4b,5,6,6a,6b,9a,10,10a,10b,11,12-dodecahydro-2H-naphtho[2′,1′:4,5]indeno[1,2-d][1,3]dioxol-2-one]
- IC50 [1]: 0.098 nM
- ED50 for inhibition of lung neutrophilia [2]: 0.27 µg
- IC50 [3]: 17 nM

Compound: CSc1cccc(Sc2ccc([C@@H]3O[C@@H]4C[C@H]5[C@@H]6C[C@H](F)C7=CC(=O)C=C[C@]7(C)[C@@]6(F)[C@@H](O)C[C@]5(C)[C@]4(C(=O)CO)O3)cc2)c1 [Example 2, (4aS,4bR,5S,6aS,6bS,8R,9aR,10aS,10bS,12S)-4b,12-difluoro-6b-glycoloyl-5-hydroxy-4a 0.6a-dimethyl-8-(4-{[3-(methylthio)phenyl]thio}phenyl)-4a,4b,5,6,6a,6b,9a,10,10a,10b,11.,12-dodecahydro-2H-naphtho[2′,1′:4,5]indeno[1,2-d][1,3]dioxol-2-one]
- IC50 [1]: 0.092 nM
- ED50 for inhibition of lung neutrophilia [2]: 0.18 µg
- IC50 [3]: 49 nM

Compound: C[C@]12C=CC(=O)C=C1[C@@H](F)C[C@H]1[C@@H]3C[C@H]4O[C@@H](c5ccc(CSc6ccc(O)cc6)cc5)O[C@@]4(C(=O)CO)[C@@]3(C)C[C@H](O)[C@@]12F [Example 3, (4aS,4bR,5S,6aS,6bS,8R,9aR,10aS,10bS,12S)-4b,12-Difluoro-6b-glycoloyl-5-hydroxy-8-(4-{[(4-hydroxyphenyl)thio]methyl}phenyl)-4a 0.6a-dimethyl-4a,4b,5,6,6a,6b,9a,10,10a,10b,11,12-dodecahydro-2H-naphtho[2′,1′:4,5]indeno[1,2-d][1,3]dioxol-2-one]
- IC50 [1]: 0.061 nM
- ED50 for inhibition of lung neutrophilia [2]: 0.45 µg
- IC50 [3]: 24 nM

Compound: C[S+]([O-])c1cccc(Sc2ccc([C@@H]3O[C@@H]4C[C@H]5[C@@H]6C[C@H](F)C7=CC(=O)C=C[C@]7(C)[C@@]6(F)[C@@H](O)C[C@]5(C)[C@]4(C(=O)CO)O3)cc2)c1 (stereo partly drawn) [Example 4, (4aS,4bR,5S,6aS,6bS,8R,9aR,10aS,10bS,12S)-4b,12-difluoro-6b-glycoloyl-5-hydroxy-4a,6a-dimethyl-8-(4-{[3-(methylsulfinyl)phenyl]thio}phenyl)-4a,4b,5,6,6a,6b,9a,10,10a,10b,11,12-dodecahydro-2H-naphtho[2′,1′:4.5]indeno[1,2-d][1,3]dioxol-2-one]
- IC50 [1]: 0.059 nM
- ED50 for inhibition of lung neutrophilia [2]: 2.00 µg
- IC50 [3]: 40 nM

Compound: C[C@]12C=CC(=O)C=C1[C@@H](F)C[C@H]1[C@@H]3C[C@H]4O[C@@H](c5ccc(CSc6ccc(O)c(Cl)c6)cc5)O[C@@]4(C(=O)CO)[C@@]3(C)C[C@H](O)[C@@]12F [Example 5, (4aS,4bR,5S,6aS,6bS,8R,9aR,10aS,10bS,12S)-8-(4-{[(3-chloro-4-hydroxyphenyl)thio]methyl}phenyl)-4-b,12-difluoro-6b-glycoloyl-5-hydroxy-4a,6a-dimethyl-4a,4b,5,6,6a,6b,9a,10,10a,10b. 11,12-dodecahydro-2H-naphtho[2′,1′:4.5]indeno[1,2-d][1,3]dioxol-2-one]
- IC50 [1]: 0.032 nM
- ED50 for inhibition of lung neutrophilia [2]: 3.6 µg
- IC50 [3]: 8.73 nM
